Results on 13 compounds are retold here after ChEMBL document CHEMBL6103540, “Recent Progress and Future Perspectives on Anti-Hyperuricemic Agents” (J Med Chem, 2024).

Assay [1] concerns the target T1, Xanthine dehydrogenase/oxidase (Homo sapiens, UniProt P47989). The experiment in a line: Inhibition of XOR (unknown origin).
The target in assay [2] is T2, Solute carrier family 22 member 12 (Homo sapiens, UniProt Q96S37).
T2 sequence (Q96S37 whole entry): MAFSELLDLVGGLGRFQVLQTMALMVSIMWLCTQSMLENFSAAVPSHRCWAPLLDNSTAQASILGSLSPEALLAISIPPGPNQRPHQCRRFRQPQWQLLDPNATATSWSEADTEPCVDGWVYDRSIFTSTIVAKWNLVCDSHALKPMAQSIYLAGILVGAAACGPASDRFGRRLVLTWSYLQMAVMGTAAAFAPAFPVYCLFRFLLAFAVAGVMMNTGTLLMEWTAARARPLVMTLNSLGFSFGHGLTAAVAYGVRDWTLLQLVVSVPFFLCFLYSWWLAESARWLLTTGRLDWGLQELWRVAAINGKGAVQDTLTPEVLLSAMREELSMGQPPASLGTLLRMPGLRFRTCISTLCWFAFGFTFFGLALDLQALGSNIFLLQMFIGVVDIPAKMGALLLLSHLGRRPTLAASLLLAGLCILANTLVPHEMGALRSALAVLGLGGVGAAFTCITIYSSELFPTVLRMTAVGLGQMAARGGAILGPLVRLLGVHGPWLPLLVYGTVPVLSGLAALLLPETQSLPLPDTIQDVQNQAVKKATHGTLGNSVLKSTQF
The experiment in a line: Inhibition of human URAT1 expressed in HEK293T cells by assessed as 14C-uric acid uptake preincubated for 5 mins followed by 14C-uric acid addition and measured after 10 mins by liquid scintillation counting method. Type of assay: cell-based.

The target in assay [3] is T2, Solute carrier family 22 member 12. The assay can be described thus: Inhibition of URAT1 (unknown origin).
For assay [4], the target named is T1, Xanthine dehydrogenase/oxidase. The assay can be described thus: Inhibition of Xanthine oxidase (unknown origin).
Assay [5] concerns the target T2, Solute carrier family 22 member 12. The experiment in a line: Inhibition of human URAT1 stably expressed in HEK293 cells by measuring 14C-uric acid uptake pre-incubated for 15 mins followed by 14C-uric acid addition and measured for 30 mins by liquid scintillation counter analysis. Type of assay: cell-based.
Assay [6] shares this target. The experiment in a line: Inhibition of human URAT1 stably expressed in HEK293T cells. Type of assay: cell-based.
For assay [7] the target is unchanged. The experiment in a line: Inhibition of URAT1 (unknown origin) expressed in human HK-2 cells at 10 uM relative to control. Type of assay: cell-based. The settings on record: HK-2, human.
For assay [8], the target named is T1, Xanthine dehydrogenase/oxidase. The experiment in a line: Inhibition of xanthine oxidase (unknown origin) by absorbance based assay.
The target in assay [9] is T3, Solute carrier family 2, facilitated glucose transporter member 9 (Homo sapiens, UniProt Q9NRM0).
T3 sequence (Q9NRM0 whole entry): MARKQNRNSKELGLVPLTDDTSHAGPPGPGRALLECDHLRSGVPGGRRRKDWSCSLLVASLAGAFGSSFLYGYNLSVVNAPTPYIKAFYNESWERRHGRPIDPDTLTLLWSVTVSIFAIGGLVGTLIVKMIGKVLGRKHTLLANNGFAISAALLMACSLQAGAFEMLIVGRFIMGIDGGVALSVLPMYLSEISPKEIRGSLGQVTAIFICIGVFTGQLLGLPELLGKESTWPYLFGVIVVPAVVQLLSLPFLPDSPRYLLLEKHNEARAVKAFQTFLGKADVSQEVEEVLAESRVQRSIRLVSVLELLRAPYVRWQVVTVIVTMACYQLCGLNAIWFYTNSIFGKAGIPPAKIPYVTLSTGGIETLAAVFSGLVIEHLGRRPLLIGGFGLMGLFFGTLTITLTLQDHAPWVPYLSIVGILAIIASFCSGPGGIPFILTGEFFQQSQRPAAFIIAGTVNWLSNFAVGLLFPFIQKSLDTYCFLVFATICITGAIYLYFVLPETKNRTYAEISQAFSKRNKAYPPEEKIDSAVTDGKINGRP
The experiment in a line: Inhibition of GLUT9 (unknown origin).

T1 sequence (P47989 whole entry): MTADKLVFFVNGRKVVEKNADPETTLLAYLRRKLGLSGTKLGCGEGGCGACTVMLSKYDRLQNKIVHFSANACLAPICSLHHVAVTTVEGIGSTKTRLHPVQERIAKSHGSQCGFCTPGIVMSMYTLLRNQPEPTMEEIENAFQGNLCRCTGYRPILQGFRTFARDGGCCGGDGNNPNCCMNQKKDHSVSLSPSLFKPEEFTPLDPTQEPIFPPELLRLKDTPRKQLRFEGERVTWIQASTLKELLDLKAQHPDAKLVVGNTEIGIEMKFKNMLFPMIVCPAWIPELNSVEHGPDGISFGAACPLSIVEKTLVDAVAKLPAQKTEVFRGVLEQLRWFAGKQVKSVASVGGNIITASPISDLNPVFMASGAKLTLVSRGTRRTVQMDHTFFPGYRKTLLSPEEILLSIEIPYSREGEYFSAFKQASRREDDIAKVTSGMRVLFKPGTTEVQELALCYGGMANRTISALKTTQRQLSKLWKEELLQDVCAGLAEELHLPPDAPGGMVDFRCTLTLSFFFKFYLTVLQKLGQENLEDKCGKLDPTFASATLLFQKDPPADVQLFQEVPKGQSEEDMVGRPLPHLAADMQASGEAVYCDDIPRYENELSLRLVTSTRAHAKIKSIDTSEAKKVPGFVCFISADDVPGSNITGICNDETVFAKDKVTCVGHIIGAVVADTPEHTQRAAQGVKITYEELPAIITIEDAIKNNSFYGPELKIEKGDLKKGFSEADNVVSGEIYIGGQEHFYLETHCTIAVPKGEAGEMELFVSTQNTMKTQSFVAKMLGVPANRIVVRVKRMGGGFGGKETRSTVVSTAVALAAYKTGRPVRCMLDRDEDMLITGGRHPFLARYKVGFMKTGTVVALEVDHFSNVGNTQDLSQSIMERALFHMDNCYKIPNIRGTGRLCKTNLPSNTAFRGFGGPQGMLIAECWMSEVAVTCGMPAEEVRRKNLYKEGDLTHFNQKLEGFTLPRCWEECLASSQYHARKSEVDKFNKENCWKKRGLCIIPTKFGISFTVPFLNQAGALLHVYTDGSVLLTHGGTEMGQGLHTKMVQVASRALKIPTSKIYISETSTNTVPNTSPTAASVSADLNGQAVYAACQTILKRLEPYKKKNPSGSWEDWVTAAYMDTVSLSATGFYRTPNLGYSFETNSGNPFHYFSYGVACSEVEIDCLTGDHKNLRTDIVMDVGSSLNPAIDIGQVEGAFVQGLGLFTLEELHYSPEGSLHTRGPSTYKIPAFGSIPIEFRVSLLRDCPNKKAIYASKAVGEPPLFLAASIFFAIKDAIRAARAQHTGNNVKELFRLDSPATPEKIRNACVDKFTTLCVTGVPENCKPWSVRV

Broadly, the IC50 is the concentration that inhibits the measured activity by half. Regarding `O=C(/C=C/c1ccc(O)c2oc(-c3ccc(O)c(O)c3)cc12)O[C@H](Cc1ccc(O)c(O)c1)C(=O)O`, the midpoint of inhibition in assay [1], the IC50, lay at 9700 nM.

Regarding `O=C(O)C1(Sc2ccccc2N2CCOc3ccc(Br)cc32)CCC1`, in assay [2], the IC50 was 1690 nM. For `O/N=C(\Cc1ccc(Br)cc1)c1ccc(O)cc1O`, the IC50 is 145 nM in assay [3] and 3330 nM in assay [4]. In turn, `CCCc1ccc(Cn2c(Br)nnc2SCC(=O)O)c2ccccc12` had an IC50 in assay [5] of 92 nM. Turning to `CCn1c(=O)sc2cc(-c3ccc(C(=O)O)c(O)c3)ccc21`, the IC50 was determined as 30200 nM in [3] and 12 nM in assay [4]. Turning to `N#Cc1cc(-n2cnc(C(=O)O)c2)ccc1N1CCCCCC1`, in assay [6], half-maximal inhibition (IC50) required 10800 nM. With `O=c1c2cc(O)c(O)cc2oc2cc(OCc3ccccc3)cc(O)c12`, in assay [4], the IC50 came out at 3300 nM. As usually defined, the inhibition is the drop in the measured response relative to a control, in per cent. Read a low inhibition as little suppression. `COc1cc2c3c(c1OS(=O)(=O)c1ccc(F)cc1)-c1ccccc1C[C@H]3N(C)CC2` returned an inhibition at 10 µM in assay [7] of 61%. On to `COc1ccc(C2CC(=O)c3c(O)cc(O)cc3O2)cc1O` (configuration not stated), for which, in assay [8], the midpoint of inhibition, the IC50, lay at 840 nM. Consider `Cc1nc(-c2ccc(OCC(C)C)c(C#N)c2)sc1C(=O)O` [FEBUXOSTAT], for which, in assay [4], the midpoint of inhibition, the IC50, lay at 10 nM.

As for `CC(C)=CCc1c(O)ccc2c1O[C@H](c1ccc(O)cc1)CC2=O` [ISOBAVACHIN], the figures for the half-maximal inhibitory concentration (IC50) in assay [3], in assay [9] and in assay [4] were 240 nM, 1120 nM and 14400 nM, respectively. In turn, `O=C(O)C1(Sc2ccnc3ccc(Br)cc23)CCC1` [SHR-4640] had an IC50 in assay [3] of 53 nM. In assay [1], `N#Cc1cc(-c2n[nH]c(-c3ccncc3)n2)ccn1` [TOPIROXOSTAT] displayed a half-maximal inhibitory concentration (IC50) of 15 nM.
